Assay results taken from publication PMC12030062, “From In Vitro Cytotoxicity to In Vivo Zebrafish Assays: A Study on 3,3-Dichloro β-, γ- and δ-Lactams and Their Biological Activity Profiles” (Pharmaceuticals, 2025).
Values after ≈ are worked out from the molar mass of the structure shown. Where two headings read alike, the source gives them in different places.

Legend:
[1] = Hemolysis assay with human erythrocytes; assay type: cell-based; settings: human, washed human erythrocyte suspension, pH 7.4, read-out: degree of hemolysis
Experimental: (§1) In this context, non-hemolytic compounds are essential, as they enhance the safety and efficacy of lactam-based drugs by reducing adverse effects while maintaining their antitumor activity. In accordance with EU regulations (ISO 10993-4), the assessment of the biological compatibility of new compounds that may come into contact with the blood necessitates in vitro hemocompatibility evaluations. In this study, the extent of hemolysis induced by the different compounds was assessed by incubating them with an erythrocyte suspension. The hemolytic response of compounds 1–10 was evaluated at two concentrations (10 and 80 µg/mL), the results of which are presented in Figure 3.
(§2) • In Vitro Assay Using Human Erythrocytes • - Acquisition and Extraction of the Erythrocytes Human blood samples were obtained from the Banc de Sang i Teixits de Barcelona (Spain) from the Catalan Department of Health. Blood was deposited in tubes with the anticoagulant EDTA-K3. Blood samples were centrifuged at 3000 rpm and 4 °C for 10 min (Megafuge 2.0 R. Heraeus Instruments, Hanau, Germany) to induce sedimentation. Plasma was extracted with a Pasteur pipette. Next, the residual pellet was washed with PBS at pH 7.4. This procedure was repeated three times to remove residual leukocytes and platelets and to concentrate the erythrocytes. Following the last wash, the erythrocyte suspension was diluted (1:1) in PBS at pH 7.4 to obtain a suitable erythrocyte suspension (cell density of 8 × 10^9 cell/mL). • - Hemolysis Assay The hemolysis assay determined the capability of different compounds to induce the hemolysis of the erythrocyte membrane. Stock solutions of each compound at 1 mg/mL in PBS at pH 7.4 were prepared. Different volumes (10–80 μL) were placed in polystyrene tubes, and an aliquot of 25 µL of the erythrocyte suspensions was added to each tube. The final volume was 1 mL. The tubes were incubated at room temperature under rotatory conditions. Then, the tubes were centrifuged at 10,000 rpm for 5 min. The supernatants’ absorbance at 540 nm (Shimadzu UV-160A, Shimadzu, Duisburg, Germany) was compared with that of the positive (erythrocytes hemolyzed with distilled water) and negative (erythrocyte suspension in PBS at pH 7.4) controls. The degree of hemolysis was determined using the following equation: Hemolysis (%) = 100 × (Abs − Abs0)/(Abs100 − Abs0) where Abs, Abs0, and Abs100 are the absorbance of the test samples, of the suspension treated with isotonic phosphate–buffered saline (PBS), and of the suspension of complete hemolysis treated with distilled water, respectively. • In Vitro Essay Using Cell Cultures The murine Swiss albino fibroblasts (3T3) and the squamous cell carcinoma (A431) cell lines were obtained from Celltec UB. Cells were grown in DMEM medium (4.5 g/L glucose) supplemented with 10% (v/v) FBS, 2 mM L-glutamine, 100 U/mL penicillin, and 100 µg/mL streptomycin at 37 °C with 5% CO2. Cells were routinely cultured in 75 cm^2 culture flasks and were trypsinized using trypsin–EDTA when the cells reached approximately 80% confluence. The trypan blue assay, which allows for the direct identification and enumeration of the live (unstained) and dead (blue) cells in the cell population, was used to evaluate the viability of the cells in the cell suspension obtained. • - Cell Viability Assays Cell lines of 3T3 (1 × 10^5 cells/mL) and A431 (5 × 10^4 cells/mL) were grown at defined densities in the 60 central wells of a 96-well plate. The cells were incubated for 24 h in 5% CO2 at 37 °C. Then, the spent medium was removed, and the cells were incubated for 24 h, with their corresponding compound solutions (1 mg/mL) previously diluted in a minimum amount of DMF (dimethylformamide) and then in DMEM medium supplemented with 5% FBS (100 µL) at the required concentration range (80 or 250 µg/mL). […]

human erythrocytes = test: Hemolysis assay with human erythrocytes; assay type: cell-based; settings: from 10 to 80 µg/mL
Experimental: as §1, §2

[2] = tested on: murine Swiss albino fibroblast (3T3) cell line; test: Cell viability, NRU assay, 3T3; assay type: cell-based; settings: Mus musculus, 24 h incubation, NRU endpoint
Experimental: (§3) Two different endpoints, 3-(4,5-dimethyl-2-thiazolyl)-2,5-diphenyltetrazolium bromide (MTT) and neutral red uptake (NRU), were used to assess differences in cell-induced cytotoxicity. […] In addition, NRU evaluates the interaction of these drugs with the plasmatic membrane. Cell responses were determined from the MTT [16] and NRU [17] assays, using the two proposed cell lines. Cytotoxicity assays were performed at concentrations equal to 80 and 250 µg/mL. The IC50 value, referring to the half-maximal inhibitory concentration, was determined as a key parameter in cytotoxicity studies (Table 1). It plays a crucial role in evaluating cell viability and assessing cellular responses to various drugs or toxins. For cases where IC50 values were below 80 µg/mL, additional studies at lower concentrations were conducted to accurately determine these values. […] The selectivity index (SI), used as a measurement of action against the tumor cell line in comparison with a normal cell line, was also included.
as §2, with “°C.” for “°C. Then, the spent medium was removed, and the cells were incubated for 24 h, with their corresponding compound solutions (1 mg/mL) previously diluted in a minimum amount of DMF (dimethylformamide) and then in DMEM medium supplemented with 5% FBS (100 µL) at the required concentration range (80 or 250 µg/mL).”

[3] = tested on: murine Swiss albino fibroblast (3T3) cell line; test: Cell viability, MTT assay, 3T3; assay type: cell-based; settings: Mus musculus, 24 h, 24 h incubation, MTT endpoint
Experimental: as §3
as §2, with “°C.” for “°C. Then, the spent medium was removed, and the cells were incubated for 24 h, with their corresponding compound solutions (1 mg/mL) previously diluted in a minimum amount of DMF (dimethylformamide) and then in DMEM medium supplemented with 5% FBS (100 µL) at the required concentration range (80 or 250 µg/mL).”

[4] = tested on: A431 cell line (squamous cell carcinoma); test: Cell viability, MTT assay, A431; assay type: cell-based; settings: for IC50: Homo sapiens; for SI250, pseudo-selectivity index (MTT): 250 µg/mL, 24 h, A431 vs 3T3, MTT; for SI (MTT), selectivity index: SI = IC50 (3T3)/IC50 (A431); for selective cytotoxicity, A431 in comparison with 3T3 cells: lower IC50 for A431 than 3T3
Experimental: as §3
as §2, with “°C.” for “°C. Then, the spent medium was removed, and the cells were incubated for 24 h, with their corresponding compound solutions (1 mg/mL) previously diluted in a minimum amount of DMF (dimethylformamide) and then in DMEM medium supplemented with 5% FBS (100 µL) at the required concentration range (80 or 250 µg/mL).”

[5] = tested on: squamous carcinoma cells (A431) in comparison with the fibroblast (3T3) cell line; parameters: method as in PMID 38731527; settings: cited from earlier work
[6] = tested on: A431 cell line (squamous cell carcinoma); test: Cell viability, NRU assay, A431; assay type: cell-based, human; settings: for SI250, pseudo-selectivity index (NRU): 250 µg/mL, 24 h, A431 vs 3T3, NRU; for IC50: Homo sapiens, A-431, 24 h, 24 h incubation, NRU endpoint, A431
Experimental: as §3
as §2, with “°C.” for “°C. Then, the spent medium was removed, and the cells were incubated for 24 h, with their corresponding compound solutions (1 mg/mL) previously diluted in a minimum amount of DMF (dimethylformamide) and then in DMEM medium supplemented with 5% FBS (100 µL) at the required concentration range (80 or 250 µg/mL).”

Zebrafish = settings: cited from earlier work
[7] = A-431, 24 h, 24 h incubation, MTT endpoint, A431, read-out: IC50 (MTT) A431
[8] = A-431, A431 and 3T3, MTT and NRU, summarised in text, read-out: IC50 values

Structure (SMILES)	hemolysis at 10 µg/mL [1] [%]	change of hemolytic response as concentration increased (human erythrocytes)	IC50 [2] [µg/mL]	IC50 [3] [µg/mL]	IC50 [4, 7] [µg/mL]	IC50 (lowest values among five products) [5] [µg/mL]	SI250, pseudo-selectivity index (NRU) [6]	IC50 [6] [µg/mL]	SI (NRU), selectivity index ([6]; SI = IC50 (3T3)/IC50 (A431), NRU)	IC50 [4, 8] [µg/mL]	SI250, pseudo-selectivity index (MTT) [4]	SI (MTT), selectivity index [4]	selective cytotoxicity, A431 in comparison with 3T3 cells [4]	hemolysis at 80 µg/mL ([1]; 80 µg/mL) [%]	acute toxicity (Zebrafish; Zebrafish embryos) [µg/mL]	acute toxicity (Zebrafish; Zebrafish) [µg/mL]
CC(C)(C)N1CC(CCl)C(Cl)(Cl)C1=O (stereo not shown) [Compound 2]	0.02	three-	> 250	> 250	> 250	100 to 250	highest SI250 values	232 ± 4.23 (≈ 896 µM)	>1.08	–	–	–	–	–	–	–
CC(C)(C)N1C(=O)[C@@H](Cl)[C@@H]2[C@H](Cl)CCC[C@@H]21 [Compound 3]	0.1	doubled	> 250	183 ± 3.11 (≈ 694 µM)	250 ± 2.11 (≈ 946 µM)	–	highest SI250 values	> 250	–	–	–	–	–	–	–	–
CC1CN(C(C)(C)C)C(=O)C1(Cl)Cl (stereo not shown) [Compound 4]	–	remained stable	> 250	> 250	> 250	–	–	> 250	–	–	–	–	–	–	–	–
C=C(Br)CN1CC(C)C(Cl)(Cl)C1=O (stereo not shown) [Compound 5]	–	–	250 (≈ 871 µM)	> 250	250 ± 1.32 (≈ 871 µM)	–	–	> 250	–	> 250	–	–	–	–	–	–
CC1CN(C2CCC(=O)CC2)C(=O)C1(Cl)Cl (stereo not shown) [Compound 6]	–	remained stable	> 250	> 250	> 250	–	highest SI250 values	> 250	–	–	–	–	–	–	–	–
CC(C)(C)N1CC(C)(C)C(Cl)(Cl)C1=O [Compound 7]	–	remained stable	> 250	> 250	230 ± 2.54 (≈ 967 µM)	–	–	> 250	–	–	above 1.5	>1.08	some selective cytotoxicity	–	–	–
CC(C)(C)N1C(=O)[C@@H](Cl)[C@@H]2CCCC[C@@H]21 [Compound 8]	0.1	doubled	> 250	> 250	250 ± 1.78 (≈ 1090 µM)	–	–	> 250	–	> 250	–	>1.0	–	–	–	–
CC1CCN(C(C)(C)C)C(=O)C1(Cl)Cl (stereo not shown) [Compound 9]	0.1	fivefold	> 250	> 250	242.9 ± 1.78 (≈ 1020 µM)	–	–	> 250	–	–	above 1.5	–	some selective cytotoxicity	~0.7	–	–
O=C1N(Cc2ccccc2)[C@H]2CCC[C@H](C2)C1(Cl)Cl [Compound 10]	0.02	remained stable	> 250	> 250	238.3 ± 1.56 (≈ 799 µM)	–	highest SI250 values	> 250	–	–	–	–	some selective cytotoxicity	–	–	–
COc1cccc2c1C(=O)c1c(O)c3c(c(O)c1C2=O)C[C@@](O)(C(=O)CO)C[C@@H]3O[C@H]1C[C@H](N)[C@H](O)[C@H](C)O1 [doxorubicin]	–	–	–	–	–	–	–	–	–	–	–	–	–	–	5.6	–
CC(=O)O[C@H]1C(=O)[C@@]2(C)[C@H]([C@H](OC(=O)c3ccccc3)[C@]3(O)C[C@H](OC(=O)[C@H](O)[C@@H](NC(=O)c4ccccc4)c4ccccc4)C(C)=C1C3(C)C)[C@]1(OC(C)=O)CO[C@@H]1C[C@@H]2O [taxol]	–	–	–	–	–	–	–	–	–	–	–	–	–	–	–	1.05
